Test results from the Bradley open melting point set (2014).

Compound | melting point [°C]
Brc1ccc(Oc2ccc(Br)cc2)cc1 [bis-p-bromophenyl_ether] | 60
COc1ccc(OC)cc1 [1,4-Dimethoxybenzene] | 58
O=C(O)C(=Cc1ccccc1)Cc1ccccc1 [2-benzyl-3-phenylacrylic acid] | 158
CC(C)CC1=C/C(=C/c2ccc(-c3ccc(Br)cc3)o2)C(=O)O1 | 108
C=C(C)C=O [methacrolein] | -81
Brc1cc(Br)c(Br)cc1Br [1,2,4,5-Tetrabromobenzene] | 182
O=[N+]([O-])c1ccc(OCC(O)CO)cc1 (centres undefined) [1-(4-nitrophenyl)glycerol] | 96
CCOC(=O)[C@@H]1CC[C@H](C(C)=O)[C@@H]1NC(=O)OC(C)(C)C | 110
Nc1cccc2ccccc12 [1-aminonaphthalene] | 49
O=Cc1c(Cl)cccc1Cl [2,6-dichlorobenzaldehyde] | 71
Nc1cc(F)c(F)cc1C(=O)O [2-amino-4,5-difluorobenzoic acid] | 182
Oc1c(Cl)c(Cl)c(Cl)c(Cl)c1Cl [Pentachlorophenol] | 174
Cc1cc(C)c(C)c(Br)c1C [1-bromo-2,3,5,6-tetramethylbenzene] | 60
CI [Iodomethane] | -64
Nc1ccc(Br)cc1 [p-bromoaniline] | 63
ClCC1CO1 (centres undefined) [epichlorohydrin] | -57.1
CCCCP(CCCC)CCCC [tri-n-butylphosphine] | -65
ClC1=C(Cl)[C@]2(Cl)C3C(Cl)C=CC3[C@@]1(Cl)C2(Cl)Cl (some centres undefined) | 95.5
Clc1cc(Cl)c(-c2cc(Cl)c(Cl)c(Cl)c2Cl)cc1Cl [PCB-180] | 112
Cc1c(C2(c3cc(Br)c(O)c(Br)c3C)OS(=O)(=O)c3ccccc32)cc(Br)c(O)c1Br | 225

Compound | melting point [°C]
Cc1ccc([N+](=O)[O-])cc1C [1,2-Dimethyl-4-nitrobenzene] | 30.5
Cc1ccc(Cl)c(N)c1 [2-chloro-5-methylaniline] | 32
ClCc1cccc(CCl)c1 [m-xylylene dichloride] | 35
N#Cc1ccc(O)cc1 [4-hydroxybenzonitrile] | 112
Cc1c2ccccc2cc2ccccc12 [9-Methylanthracene] | 78
CC(=O)O[C@H]1O[C@@H](COC(=O)c2ccccc2)[C@H](OC(=O)c2ccccc2)[C@@H]1OC(=O)c1ccccc1 [1-o-acetyl-2,3,5-tri-o-benzoyl-beta-D-ribofuranose] | 129
COC(=O)c1cccc(OC(C)=O)c1 [methyl_3-acetoxybenzoate] | 29
COc1ccccc1OC [veratrole] | 22
CC(C)(C)c1cc(O)c(C(C)(C)C)cc1O [2,5-Di-tert-butylbenzene-1,4-diol] | 218
CCCCCCCCCCSc1cc(N(NC(=O)OC(C)(C)C)C(=O)OC(C)(C)C)cc(SCCCCCCCCCC)c1SCCCCCCCCCC | 50.5
COc1cccc(C=O)c1OC [2,3-dimethoxybenzaldehyde] | 52
O=[N+]([O-])c1cccc(Cl)c1Cl [2,3-dichloronitrobenzene] | 62
O=S(=O)(Cl)c1ccc(Cl)c(Cl)c1Cl [2,3,4-trichlorobenzenesulfonyl chloride] | 63
Cc1ccc(N)cc1[N+](=O)[O-] [4-methyl-3-nitroaniline] | 77
O=C(O)c1ccccc1Br [2-Bromobenzoic acid] | 149
O=C=Nc1ccccc1 [phenyl isocyanate] | -33
O=C(c1ccc(F)cc1)c1ccccc1F [2,4'-difluorobenzophenone] | 23
Clc1ccc(C(c2ccccc2Cl)C(Cl)(Cl)Cl)cc1 (centres undefined) [o,p'-DDT] | 75
CC(=O)Nc1cc(C)ccc1O [2'-hydroxy-5'-methylacetanilide] | 149

Results, then the compound that gave them:

melting point [°C] | Compound
116 | O=C(c1ccccc1)c1ccc(C(F)(F)F)cc1 [FXFFR DVR]
-52 | CCCCCCO [Hexan-1-ol]
45 | Cc1cc(Br)ccc1N=C=S [4-bromo-2-methylphenyl isothiocyanate]
-57 | CCCCCCCC [N-octane]
10 | CCCCCCCCC(CCCCCC)C(=O)O (centres undefined) [2-n-hexyldecanoic acid]
82 | CCc1ncc[nH]1 [2-ethylimidazole]
116 | CCOC(=O)c1ccc(O)cc1 [ethylparaben]
201 | COC(=O)c1cc(O)c(O)c(O)c1 [methyl 3,4,5-trihydroxybenzoate]
252 | Cc1ccccc1N1C(=O)c2cc(S(N)(=O)=O)c(Cl)cc2NC1C (centres undefined) [metolazone]
238 | Cn1c(=O)c2c(ncn2C)n(C)c1=O [caffeine]
-51 | CC(=O)OCc1ccccc1 [benzyl acetate]
-114 | CCO [ethanol]
112 | OCc1ccc(O)cc1 [4-hydroxybenzyl_alcohol]
2 | CCCCCCCCCC(C)O (centres undefined) [2-undecanol]
97 | COc1ccc(C(=O)OC(=O)c2ccc(OC)cc2)cc1 [4-methoxybenzoic anhydride]
180 | Cc1ccc(C(=O)O)cc1 [p-toluic acid]
-2 | O=S(=O)(O)O [Sulfuric acid]
203 | O=C(O)c1cccc(O)c1 [3-hydroxybenzoic_acid]
28.5 | CCCCCCCCCCC(=O)O [Undecanoic acid]
86 | Clc1cc(Cl)c(Cl)c(Cl)c1Cl [pentachlorobenzene]
67 | [2H]C([2H])([2H])C([2H])([2H])C([2H])([2H])C([2H])([2H])C([2H])([2H])C([2H])([2H])C([2H])([2H])C([2H])([2H])C([2H])([2H])C([2H])([2H])C([2H])([2H])C([2H])([2H])C([2H])([2H])C([2H])([2H])C([2H])([2H])C([2H])([2H])C([2H])([2H])C(=O)O [(~2~H_35_)Octadecanoic acid]
124 | OC1c2ccccc2Oc2ccccc21 [xanthydrol]
136 | CCCN1C(=O)CCC(N2C(=O)c3ccccc3C2=O)C1=O (centres undefined) [N-Propylthalidomide]
90 | COC(=O)c1c(C)nn(C(=O)OC)c1C [dimethyl 3,5-dimethyl-1H-pyrazole-1,4-dicarboxylate]
116 | CCCCC(=O)N(Cc1ccc(-c2ccccc2-c2nnn[nH]2)cc1)C(C(=O)O)C(C)C (centres undefined) [valsartan]
186 | CC(C)(Oc1ccc(CCNC(=O)c2ccc(Cl)cc2)cc1)C(=O)O [bezafibrate]
27.5 | OC[C@@H](O)COCc1ccccc1 [(2R)-3-(Benzyloxy)propane-1,2-diol]
198 | O=C1NC(=O)c2cc([N+](=O)[O-])ccc21 [4-nitrophthalimide]

melting point [°C] | Compound
10 | CCCCCCCCCCCCCc1ccccc1 [N-tridecylbenzene]
84 | O=C(Cl)N(c1ccccc1)c1ccccc1 [diphenylcarbamyl chloride]
94 | OCCN1CCN(CCCN2c3ccccc3Sc3ccc(Cl)cc32)CC1 [perphenazine]
-80 | CCCCCCOC(C)=O [N-hexyl acetate]
119 | O=C(O)CC[C@H](NC(=O)OCc1ccccc1)C(=O)O [N-benzyloxycarbonyl-l-glutamic acid]
168 | O=C(O)c1ccc(C(F)(F)F)cc1F [2-fluoro-4-(trifluoromethyl)benzoic acid]
41 | O=C1CCCCCCC1 [cyclooctanone]
-40 | CCCCCC(=O)OC(=O)CCCCC [hexanoic anhydride]
87 | Clc1ccc(COC(Cn2ccnc2)c2ccc(Cl)cc2Cl)cc1 (centres undefined) [Ecostatin]
64 | CCCCCCCC(=O)Oc1ccc(/N=N/c2ccc(CCCC)cc2)cc1 [4-[(E)-(4-butylphenyl)diazenyl]phenyl octanoate]
80 | O=C(/C=C/c1ccc(-c2ccccc2)o1)c1ccccc1 [(2E)-1-phenyl-3-(5-phenyl-2-furyl)prop-2-en-1-one]
110 | CC(C)(C)c1ccc2c(c1)OCCOCCOc1cc(C(C)(C)C)ccc1OCCOCCO2 [4',4''(5'')-di-tert-butyldibenzo-18-crown-6]
113 | Oc1cc(Cl)c(-c2c(Cl)cc(Cl)cc2Cl)c(Cl)c1O [PCB-155]
84 | COC(=O)CCC(C)C1CCC2C3C=CC4CC(OC(C)=O)CCC4(C)C3CC(OC(C)=O)C12C (centres undefined) [methyl 3,12-bis(acetyloxy)chol-6-en-24-oate]
302 | O=c1c(-c2ccc(O)cc2)coc2cc(O)cc(O)c12 [Genistein]
249 | c1ccc(-c2c3ccccc3c(-c3ccccc3)c3ccccc23)cc1 [9,10-Diphenylanthracene]
138 | N#Cc1ccc2ncsc2c1 [benzothiazole-6-carbonitrile]
6 | COc1cc(C)ccc1O [2-methoxy-4-methylphenol]
201 | COc1cc(Cc2cnc(N)nc2N)cc(OC)c1OC [trimethoprim]
96 | O=C(O)Cc1ccccc1Cl [2-chlorophenylacetic acid]
168 | CC(=O)Nc1ccccc1NNc1ccccc1 [N-[2-(2-phenylhydrazino)phenyl]acetamide]
77 | CCCCCCCCC(=O)O[C@H]1CC[C@@]2(C)C(=CC[C@H]3[C@@H]4CC[C@H]([C@H](C)CCCC(C)C)[C@@]4(C)CC[C@@H]32)C1 [cholesteryl nonanoate]
277 | OB(O)c1cc(F)c(F)c(F)c1 [3,4,5-trifluorobenzeneboronic acid]
16 | CC(C)c1ccccc1O [2-isopropylphenol]
142 | O=C(NC(C(=O)O)c1ccccc1)OCC(Cl)(Cl)Cl (centres undefined) [Phenyl{[(2,2,2-trichloroethoxy)carbonyl]amino}acetic acid]
218 | O=C(O)/C=C/c1cccc(B(O)O)c1 [3-(2-carboxyvinyl)benzeneboronic acid]
58 | COc1ccc(/C=C/C=O)cc1 [trans-4-methoxycinnamaldehyde]
